Data set [1] relates to HT29 cells. The data set is described as follows: LDH release (CytoTox-ONE membrane integrity, necrosis). The class given is cell-based, human. Conditions: any concentration, in comparison with DMSO control, 12 h. The protocol: All media and chemicals were purchased from Sigma Aldrich (Castle Hill, NSW, Australia) unless otherwise stated. HT29 human colorectal cancer cell line (passage no. 36-42) were cultured (37 °C and 5% CO2) in Dulbecco’s Modified Eagle’s Medium (DMEM) supplemented with 4500 mg/L L-glutamine, 10% FBS, 100 U/mL Penicillin/Streptomycin and 1% Non-essential Amino Acid (100×), until the cells reached 70% confluence. The cells were harvested from flasks by trypsinization (1× Trypsin-EDTA) and were seeded (20,000 cells/well) into clear 96-well plates (Costar®, Mt Martha, VIC, Australia) for measurement of cell viability and white (opaque) 96-well plates (Interpath, Heidelberg West, VIC, Australia) for determination of apoptosis and necrosis. HT29 cells were incubated for 48 h, then the media was removed and the cells were washed with PBS. To treat the cells, synthetic 6-bromoisatin was dissolved in 100% dimethylsulphoxide (DMSO) then diluted in media and added to the cells at a range of concentrations from 0.1 to 0.01 mg/mL, in triplicate (final DMSO concentration of 1%). 1% DMSO controls were also included on each plate. Staurosporine (5 µM) for apoptosis and lysis solution (5 μL/well, Promega, Alexandria, NSW, Australia) for necrosis were added to the white plates in triplicate, as positive controls. All cells were treated for 12 h. […]

In data set [2] the test system is HT29 cells. The data set is described as follows: Light microscopy of cell morphology (apoptosis). The data set is classed as cell-based, human. Conditions: 12 h. As to the method:
The cells were harvested from flasks by trypsinization (1× Trypsin-EDTA) and were seeded (20,000 cells/well) into clear 96-well plates (Costar®, Mt Martha, VIC, Australia) for measurement of cell viability and white (opaque) 96-well plates (Interpath, Heidelberg West, VIC, Australia) for determination of apoptosis and necrosis. HT29 cells were incubated for 48 h, then the media was removed and the cells were washed with PBS. To treat the cells, synthetic 6-bromoisatin was dissolved in 100% dimethylsulphoxide (DMSO) then diluted in media and added to the cells at a range of concentrations from 0.1 to 0.01 mg/mL, in triplicate (final DMSO concentration of 1%). 1% DMSO controls were also included on each plate. Staurosporine (5 µM) for apoptosis and lysis solution (5 μL/well, Promega, Alexandria, NSW, Australia) for necrosis were added to the white plates in triplicate, as positive controls. All cells were treated for 12 h. Morphological changes in the cells were observed on an Olympus CK2 inverted optical microscope (×400 magnification) 12 h after treatment. To measure cell viability, the MTT assay was applied, which measures the reduction of MTT tetrazolium salt to formazan, as previously described. To measure necrosis and apoptosis, CytoTox-ONE Homogeneous Membrane Integrity Assay reagent (Promega) and Caspase-Glo 3/7® assay (Promega) were applied respectively, according to our previous study. These assays were all repeated in triplicate on three separate occasions (n = 3).

A short description of data set [3]: Plasma liver enzymes AST, ALT, ALP (hepatotoxicity). The data set is classed as in vivo, mice (C57BL/6J). The conditions noted are these: 0.025-0.1 mg/g daily gavage two weeks, versus oil control. The protocol: To detect the early stage prevention of colon cancer, an established AARGC rodent model with injection of the carcinogen AOM was used. Synthetic 6-bromoisatin at 3 different dosages (0.025, 0.05 and 0.1 mg/g body weight) was administered to mice by daily oral gavage in 100 µL sunflower oil, containing 0.02% Vitamin E, for two weeks. The control group was gavaged with sunflower oil (containing 0.02% Vitamin E) only. After two weeks, all mice were injected with a single intraperitoneal (i.p.) injection of AOM at a dosage of 10 mg/kg bodyweight and euthanized 6 h later by cervical dislocation under anesthesia. […] The distal colon of each mouse was excised and fixed in 10% buffered formalin for 24 h and then embedded in paraffin for histological and immunohistological examination.
Blood samples (0.5–1 mL) were obtained from the mice under anesthesia by cardiac puncture at time of kill and transferred to Gribbles Veterinary Pathology laboratory, Adelaide within heparinized vacutainer tubes then centrifuged to separate into the cell layer for hematology analysis (Abbott Cell Dyn 3700 analyzer, North Ryde, NSW, Australia) and plasma for biochemistry analysis (Siemens Advia 1800 chemistry analyzer, Erlangen, Germany). The plasma levels of the liver enzymes AST, ALT and ALP were assessed as indicators of hepatotoxicity.

`O=C1Nc2cc(Br)ccc2C1=O` [6-bromoisatin, 6-Bromoindole-2,3-dione]: the “level of lactate dehydrogenase (LDH)” value with HT29 cells [1] was “No increase”. The cell morphology result in the data set on HT29 cells [2] (112 μM) is given as “morphological alterations, such as chromatin condensation, characteristic of the apoptotic process”; in the data set on HT29 cells [2] (223 μM), “morphological alterations, such as chromatin condensation, characteristic of the apoptotic process”; with HT29 cells [2] (446 μM, in lower numbers than the two other doses), “Apoptotic cells were also observed”. Besides, the “plasma level of AST, ALT and ALP” value in data set [3] is “No significant difference”.

The values are drawn from publication PMC3917258, “6-Bromoisatin Found in Muricid Mollusc Extracts Inhibits Colon Cancer Cell Proliferation and Induces Apoptosis, Preventing Early Stage Tumor Formation in a Colorectal Cancer Rodent Model” (Marine Drugs, 2013).
